Assay results published in the supplement of paper PMC10307832.

Experiments:
Test in all cases: relative viability (nuclei count vs DMSO), 5 days (fraction); higher = more cells survive
[1] = compound: C(C(=O)C(=O)O)Br [Bromopyruvate] + C[C@@H](Oc1cc(-c2cnn(C3CCNCC3)c2)cnc1N)c1c(Cl)ccc(F)c1Cl [Crizotinib] (partner 1 µM)
Summary of the method: (§1)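 Nuclei were stained with Hoechst during a one-step fixation (final 0.05% Triton X-100, 1% formaldehyde, 1 ug/ml Hoechst) carried out 5 days after dosing, then counted on 4× images. The cells, lung cancer lines in 1536-well plates, had been dosed by pin tool the day after seeding with one drug alone or a fixed anchor-drug dose plus five library-drug doses (not always all listed) in √10 steps. Relative viability is the nuclei count in treated wells divided by that in vehicle wells, and each value is the median of duplicate plates.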

[2] = compound: C(C(=O)C(=O)O)Br [Bromopyruvate] + C[C@]1(O)C[C@@H](c2nc(-c3ccc4ccc(-c5ccccc5)nc4c3)c3c(N)nccn32)C1 [Linsitinib] (partner 1 µM)
Summary of the method: as §1

[3] = compound: CC(O)(CS(=O)(=O)c1ccc(F)cc1)C(=O)Nc1ccc(C#N)c(C(F)(F)F)c1 [Bicalutamide] + Nc1ncn([C@H]2C[C@H](O)[C@@H](CO)O2)c(=O)n1 [Decitabine] (partner 2 µM)
Summary of the method: as §1

[4] = compound: CC(O)(CS(=O)(=O)c1ccc(F)cc1)C(=O)Nc1ccc(C#N)c(C(F)(F)F)c1 [Bicalutamide] + CC(=O)c1c(C)c2cnc(Nc3ccc(N4CCNCC4)cn3)nc2n(C2CCCC2)c1=O [Palbociclib] (partner 0.5 µM)
Summary of the method: as §1

Cell Line	relative viability ([1]; first compound 1 µM)	relative viability ([1]; first compound 3.162 µM)	relative viability ([1]; first compound 10 µM)	relative viability ([1]; first compound 31.62 µM)	relative viability ([1]; first compound 100 µM)	relative viability ([2]; first compound 1 µM)	relative viability ([2]; first compound 3.162 µM)	relative viability ([2]; first compound 10 µM)	relative viability ([2]; first compound 31.62 µM)	relative viability ([2]; first compound 100 µM)	relative viability ([3]; first compound 0.08 µM)	relative viability ([3]; first compound 0.253 µM)	relative viability ([3]; first compound 0.8 µM)	relative viability ([3]; first compound 2.53 µM)	relative viability ([4]; first compound 0.08 µM)	relative viability ([4]; first compound 0.253 µM)	relative viability ([4]; first compound 0.8 µM)	relative viability ([4]; first compound 2.53 µM)
NCI-H1915	0.836	0.862	0.885	0.923	0.878	1.12	1.15	1.09	1.09	1.1	0.28	0.26	0.282	0.278	0.534	0.463	0.595	0.473
NCI-H1944	1.08	1.09	1.12	1.07	1.14	1.27	1.31	1.19	1.12	1.22	0.441	0.433	0.428	0.462	0.335	0.299	0.354	0.323
NCI-H1975	0.95	0.955	1	0.981	0.955	0.877	1.12	1.16	0.999	0.853	0.384	0.36	0.436	0.408	0.627	0.532	0.688	0.492
NCI-H1993	1.25	0.931	0.899	0.84	0.867	0.739	0.678	0.707	0.717	0.7	0.678	0.514	0.647	0.627	0.642	0.513	0.793	0.772
NCI-H2009	1.05	1.1	1.03	0.921	0.724	1.16	1.25	1.22	1.1	0.97	0.356	0.37	0.405	0.38	0.241	0.246	0.252	0.255
NCI-H2023	0.685	0.658	0.618	0.785	0.542	0.664	0.72	0.682	0.752	0.605	0.267	0.227	0.248	0.233	0.406	0.373	0.408	0.286
NCI-H2085	0.823	0.984	0.874	0.778	0.797	0.984	1.04	0.864	0.876	0.639	0.555	0.601	0.553	0.525	0.494	0.465	0.478	0.468
NCI-H2087	0.9	0.957	0.661	0.78	0.78	0.856	1.04	0.932	0.954	0.959	0.295	0.237	0.302	0.286	0.222	0.272	0.237	0.24
NCI-H2126	1.02	1.07	1.04	0.99	0.988	0.718	0.693	0.697	0.701	0.753	0.572	0.537	0.582	0.528	0.339	0.339	0.344	0.32
